Measurements: ChEMBL document CHEMBL4699566, “Pharmacophore modeling, design, and synthesis of potent antihypertensives, oxazolo/thiazolo-[3,2-a]-pyrimidin-3(2H)-one, and 1,5-dihydroimidazo-[1,2-a]-pyrimidin-3(2H)-one derivatives: A pilot trial” (2020)

Experiments:
Type in all cases: functional
Rattus norvegicus [1] = assay: Antihypertensive activity in spontaneously hypertensive rat assessed as reduction in mean arterial blood pressure at 1.5 mg/kg, po measured after 6 hrs relative to nifedipine; design: scale not given: the % may be the effect or the level left
Rattus norvegicus [2] = assay: Antihypertensive activity in spontaneously hypertensive rat assessed as reduction in mean arterial blood pressure at 1.5 mg/kg, po measured after 6 hrs
Rattus norvegicus [3] = assay: Antihypertensive activity in spontaneously hypertensive rat assessed as reduction in mean arterial blood pressure at 3 mg/kg, po measured after 6 hrs
Rattus norvegicus [4] = assay: Antihypertensive activity in spontaneously hypertensive rat assessed as reduction in mean arterial blood pressure at 1.5 mg/kg, po measured after 12 hrs relative to nifedipine; design: scale not given: the % may be the effect or the level left
Rattus norvegicus [5] = assay: Antihypertensive activity in spontaneously hypertensive rat assessed as reduction in mean arterial blood pressure at 3 mg/kg, po measured after 12 hrs
Rattus norvegicus [6] = assay: Antihypertensive activity in spontaneously hypertensive rat assessed as reduction in mean arterial blood pressure at 3 mg/kg, po measured after 12 hrs relative to nifedipine; design: scale not given: the % may be the effect or the level left
Rattus norvegicus [7] = assay: Antihypertensive activity in spontaneously hypertensive rat assessed as reduction in mean arterial blood pressure at 1.5 mg/kg, po measured after 12 hrs
Rattus norvegicus [8] = assay: Antihypertensive activity in spontaneously hypertensive rat assessed as reduction in mean arterial blood pressure at 3 mg/kg, po measured after 6 hrs relative to nifedipine; design: scale not given: the % may be the effect or the level left

Structure (SMILES)	Activity (Rattus norvegicus [1])	Activity (Rattus norvegicus [2])	Activity (Rattus norvegicus [3])	Activity (Rattus norvegicus [4])	Activity (Rattus norvegicus [5])	Activity (Rattus norvegicus [6])	Activity (Rattus norvegicus [7])	Activity (Rattus norvegicus [8])
CCOC(=O)C1=C(C)N=C2NC(C)C(=O)N2C1c1cccc(C)c1 (centres undefined)	79.78%	5.5 mmHg	18 mmHg	92.95%	24.65 mmHg	92.02%	11.51 mmHg	95.46%
CCOC(=O)C1=C(C)N=C2SC(C)C(=O)N2C1c1ccccc1O (centres undefined)		0.58 mmHg	4.47 mmHg		9.18 mmHg		1.29 mmHg	
CCOC(=O)C1=C(C)N=C2OC(C)C(=O)N2C1c1cccc([N+](=O)[O-])c1 (centres undefined)		2.01 mmHg	8.19 mmHg		15.16 mmHg		4.1 mmHg	
CCOC(=O)C1=C(C)N=C2NC(C)C(=O)N2C1c1ccccc1 (centres undefined)	79.78%	5.96 mmHg	18.1 mmHg	92.95%	25.38 mmHg	92.02%	12.39 mmHg	95.46%
CCOC(=O)C1=C(C)N=C2OC(C)C(=O)N2C1c1ccc([N+](=O)[O-])cc1 (centres undefined)		1.8 mmHg	7.22 mmHg		12.97 mmHg		2.59 mmHg	
CCOC(=O)C1=C(C)N=C2SC(C)C(=O)N2C1c1ccc(C)c(C)c1 (centres undefined)		1.62 mmHg	5.76 mmHg		8.24 mmHg		2.2 mmHg	
CCOC(=O)C1=C(C)N=C2SC(C)C(=O)N2C1c1cccc(Cl)c1 (centres undefined)		1.16 mmHg	5.37 mmHg		7.2 mmHg		1.41 mmHg	
CCOC(=O)C1=C(C)N=C2OC(C)C(=O)N2C1c1ccccc1 (centres undefined)		1.12 mmHg	6.04 mmHg		10.9 mmHg		1.82 mmHg	
COC(=O)C1=C(C)NC(C)=C(C(=O)OC)C1c1ccccc1[N+](=O)[O-] [NIFEDIPINE]		7.47 mmHg	18.96 mmHg		27.58 mmHg		13.33 mmHg	
